The subject of one experiment is MV-4-11 AML cells. Description: MLLr AML xenograft model MV-4-11. The class given is in vivo, female CB17 SCID mice. The conditions noted are these: for % REGRESSION AT DOSING END / % TUMOR REGROWTH AT STUDY END: 14 days. On the procedure:
MV-4-11 cells were grown in RPM1 1640 (Gibco, #21875091) supplemented with 10% FBS (Gibco; #10091-148) and 1% Pen/Strep (Gibco; #15140-122). Cells were harvested and resuspended in PBS/Matrigel (Corning; #CLS354234) (50/50). The compound of Example 56-2 was formulated in water at pH 4.5-5 using 1 M MSA as pH-adjusting agent at the concentrations up to 100 mg/mL to achieve a uniform suspension and dosed twice daily by oral gavage 10 mL/kg. For convenience, the compound of Example 56-2 is referred to as “Compound 56-2” in this Example and the other Examples.
10 million human MV-4-11 AML cells were implanted subcutaneously in the right flank of female CB17 SCID mice. Mice were randomized into groups of 5 when average tumor volume reached approximately 160 mm^3. Mice were treated for 14 days with vehicle (water at pH 4.5-5 using 1M MSA) or Compound 56-2 at 30, 100, or 200 mg/kg. Compound 56-2 was dosed orally twice daily 8/16 hours apart. The group administered Compound 56-2 at 30, 100, 200 mg/kg were monitored for regrowth for 6 weeks. […] FIG. 1 illustrates the effect of treatment with Compound 56-2 on tumor volume in this MLLr MV-4-11 human AML cancer xenograft mouse model.

For another experiment, the system named is CBAM-44728. Description: MLLr AML patient derived disseminated xenograft model CBAM-44728. The experiment is classed as in vivo, female NSG mice. Conditions: 150 mg/kg oral twice daily, 21 days. On the procedure:
(§1) Viably frozen A. CBAM-68552, B. CBAM-44728, and C. DFAL-49600 single cell suspensions from spleens of donor mice were prepared into frozen stock. Flow cytometry antibodies for Ter119 (Miltenyi 130-112-914), mouse CD45 (Miltenyi 130-110-665), and human CD45 (Miltenyi 130-110-634) and Fixable Live Dead Stain (ThermoFisher; #L34963) for disease evaluation via flow cytometry on MACSQuant (Miltenyi). Compound 56-2 was formulated in water at pH 4.5-5 using 1M MSA as pH-adjusting agent at concentrations up to 100 mg/mL to achieve a uniform suspension and dosed twice daily by oral gavage 10 mL/kg.
(§2) A. CBAM-68552, B. CBAM-44728, and C. DFAL-49600 cells were thawed and 1 million cells implanted via the tail vein in to female NSG mice. Mice were randomized into groups of 5 when human CD45 levels reached average of A. CBAM-68552 6.5%, B. CBAM-44728 4.8%, and C. DFAL-49600 12.4% in the bone marrow of satellite animals. Mice were treated for 21 days with vehicle (water at pH 4.5-5 using 1 M MSA) or Compound 56-2 at 150 mg/kg. Compound 56-2 was dosed orally twice daily 8/16 hours apart and mice were monitored for overall survival. FIGS. 3-A, 3-B, and 3-C further illustrate the effect of treatment with Compound 56-2 in human MLLr AML Patient Derived Disseminated Xenograft Models A. CBAM-68552, B. CBAM-44728, and C. DFAL-49600, respectively.

The target in a further experiment is hERG ion channel (Homo sapiens (Human), UniProt Q12809). Description: hERG assay 3, QPatchII 48X, 30 degrees Celsius. The experiment is classed as cell-based. Conditions: CHO cells. On the procedure: Experiments were performed on the QPatchII 48X(Sophion Biosciences) high throughput patch clamp platform at 30 degrees Celsius using single holes QChips (Sophion Bioscience). Chinese hamster ovary K1 (CHO) cell lines over-expressing the hERG ion channel were used from live culture. All compounds were dispensed as solid stocks in glass vials. Compounds were solubilised to 10 or 50 mM DMSO stocks on the day of experiments, after which dilutions in DMSO we undertaken. Stamps of DMSO stocks were made into an MTP plate using glass vials, after which extracellular solution was backfilled creating testing concentrations with a highest concentration of 40 and 200 μM, respectively. The internal patch clamp solution was KF 60 mM, KCl 70 mM, HEPES 10 mM, EGTA 10 mM, and 5 mM Mg ATP (pH7.2).
For orientation: The hERG channel carries a current that helps repolarise heart muscle cells.

The test system of the next experiment is DFAL-49600. Description: MLLr AML patient derived disseminated xenograft model DFAL-49600. The experiment is classed as in vivo, female NSG mice. The conditions noted are these: 150 mg/kg oral twice daily, 21 days. On the procedure:
as §1, §2
(In xenograft studies the graft and the host belong to different species.)

Another experiment deals with Menin protein (Homo sapiens, UniProt O00255, DEL460-519). Description: Menin/MLL fluorescence polarization (FP) assay. The experiment is classed as binding. The conditions noted are these: Menin 2 nM, cRho110-Ahx-MBM1/MBM2 peptide 1 nM. On the procedure: Compounds were tested in a biochemical binding assay using Menin protein at 2 nM (N6his-tev-Menin_4i80, PB-20-1459) and the substrate cRho110-Ahx-MBM1/MBM2 peptide (UbiQ, UbiQ-Q20201030; cRh110-Ahx-[…]-QRVPALLLPPG-NH2) at 1 nM.
384 Low volume black plates (Corning #4514) were used. 5 μL/well compound or 3% DMSO was added at 10-fold serial dilutions in DMSO from 10 μM. 5 μL/well cRho110-Ahx-MBM1/MBM2 peptide or binding buffer (50 mM Tris pH 7.5, 50 mM NaCl, 1 mM TCEP, 0.01% BGG, 0.01% Brij-35) was added to all wells. 5 μL/well Menin protein or binding buffer (50 mM Tris pH 7.5, 50 mM NaCl, 1 mM TCEP, 0.01% BGG, 0.01% Brij-35) was added to all wells. Plates were read on an EnVision plate reader (Perkin Elmer) with excitation at 480 nm and emission at 535 nm P+S, and measured every 5 minutes for 180 minutes.
Data were analyzed in Genedata Screener®. IC50 values were determined by plotting % inhibition versus log compound concentration and using a one site dose response model. Raw data signals were normalized using 1% DMSO no Menin as 100% inhibitor control and 1% DMSO with Menin and no inhibitor as 0% inhibitor control.
A general note: In fluorescence polarisation assays a small probe gives low polarisation when free and higher when bound to something large.

Sequence of Menin protein (O00255 with tags, fused parts or gaps DEL460-519): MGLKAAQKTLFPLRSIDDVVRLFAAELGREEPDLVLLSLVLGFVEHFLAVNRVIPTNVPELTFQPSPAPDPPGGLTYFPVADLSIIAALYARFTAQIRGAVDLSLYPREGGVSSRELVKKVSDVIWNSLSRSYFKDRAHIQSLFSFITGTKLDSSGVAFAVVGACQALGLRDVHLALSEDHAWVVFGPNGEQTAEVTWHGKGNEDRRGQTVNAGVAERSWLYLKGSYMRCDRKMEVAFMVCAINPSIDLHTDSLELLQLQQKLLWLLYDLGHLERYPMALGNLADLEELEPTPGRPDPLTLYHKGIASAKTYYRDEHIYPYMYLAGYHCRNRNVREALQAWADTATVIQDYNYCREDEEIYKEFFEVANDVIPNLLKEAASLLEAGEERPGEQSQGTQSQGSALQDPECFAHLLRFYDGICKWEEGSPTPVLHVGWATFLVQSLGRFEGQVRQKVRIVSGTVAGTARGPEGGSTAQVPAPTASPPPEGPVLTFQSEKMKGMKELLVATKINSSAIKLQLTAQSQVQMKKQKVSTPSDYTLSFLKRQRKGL
Sequence of hERG ion channel (Q12809 whole entry): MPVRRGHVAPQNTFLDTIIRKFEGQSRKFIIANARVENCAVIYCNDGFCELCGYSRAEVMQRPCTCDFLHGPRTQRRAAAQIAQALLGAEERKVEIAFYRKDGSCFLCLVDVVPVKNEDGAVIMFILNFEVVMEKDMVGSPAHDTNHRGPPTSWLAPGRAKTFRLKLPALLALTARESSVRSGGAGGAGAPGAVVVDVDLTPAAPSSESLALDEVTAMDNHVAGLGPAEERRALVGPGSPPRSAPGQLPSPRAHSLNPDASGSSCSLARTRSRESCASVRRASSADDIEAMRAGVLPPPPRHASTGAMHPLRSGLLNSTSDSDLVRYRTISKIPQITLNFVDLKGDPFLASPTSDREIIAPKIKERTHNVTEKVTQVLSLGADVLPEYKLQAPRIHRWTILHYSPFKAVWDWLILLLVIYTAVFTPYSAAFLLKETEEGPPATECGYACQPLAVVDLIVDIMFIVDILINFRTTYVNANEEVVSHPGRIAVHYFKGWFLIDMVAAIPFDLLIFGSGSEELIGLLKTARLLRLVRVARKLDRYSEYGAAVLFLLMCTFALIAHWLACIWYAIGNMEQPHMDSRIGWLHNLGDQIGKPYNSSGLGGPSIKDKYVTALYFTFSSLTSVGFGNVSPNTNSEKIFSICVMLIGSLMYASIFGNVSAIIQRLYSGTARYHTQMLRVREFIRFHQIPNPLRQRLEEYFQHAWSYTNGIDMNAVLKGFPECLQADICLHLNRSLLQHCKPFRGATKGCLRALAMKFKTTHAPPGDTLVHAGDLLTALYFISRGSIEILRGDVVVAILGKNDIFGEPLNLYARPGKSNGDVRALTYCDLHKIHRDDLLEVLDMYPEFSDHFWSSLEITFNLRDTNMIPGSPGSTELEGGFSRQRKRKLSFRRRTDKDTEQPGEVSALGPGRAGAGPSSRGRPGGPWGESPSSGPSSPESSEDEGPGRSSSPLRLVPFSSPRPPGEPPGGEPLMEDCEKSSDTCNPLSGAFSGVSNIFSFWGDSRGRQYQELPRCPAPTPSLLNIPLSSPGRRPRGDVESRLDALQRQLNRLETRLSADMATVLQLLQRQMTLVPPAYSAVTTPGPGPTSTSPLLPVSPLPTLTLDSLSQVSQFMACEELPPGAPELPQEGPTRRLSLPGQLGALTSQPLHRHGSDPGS

The term IC50 denotes the concentration that inhibits the measured activity by half. Read a low IC50 as higher potency. In the case of `Cc1c(C(=O)C2CCN(C(=O)[C@@H]3CCC(C)(C)N3)CC2)c2ccncc2n1-c1ccc(F)cc1C(=O)N(C(C)C)C(C)C` (single isomer, unassigned) [Compound 56-2], the “% REGRESSION AT DOSING END” value in the experiment with MV-4-11 AML cells (30 mg/kg oral twice daily) amounted to 88%; in the experiment on MV-4-11 AML cells (100 mg/kg oral twice daily) it was 97%; in the experiment with MV-4-11 AML cells (200 mg/kg oral twice daily), 99%. The “% TUMOR REGROWTH AT STUDY END” value was 100% in the experiment with MV-4-11 AML cells (30 mg/kg oral twice daily, monitored 6 weeks); 0% with MV-4-11 AML cells (100 mg/kg oral twice daily, monitored 6 weeks); 0% with MV-4-11 AML cells (200 mg/kg oral twice daily, monitored 6 weeks). The “tumor regrowth (in words)” value with MV-4-11 AML cells (100 mg/kg and 200 mg/kg, monitored 6 weeks) was “no tumor regrowth”. Moreover, the entries for the “LATENCY (overall survival)” value with CBAM-44728 and with DFAL-49600 were 106 days and 161 days, respectively. Besides, the values for the 50% inhibitory concentration (IC50) on hERG ion channel and on Menin protein were 42900 nM and 43 nM, respectively.
As to `CCN(C(=O)c1cc(F)ccc1-n1c(C)c(C(=O)C2CCN(C(=O)[C@H]3NC[C@@H]4C[C@@H]43)CC2)c2ccncc21)C(C)C` (single isomer, unassigned) [Example 48-2], half-maximal inhibition on Menin protein (IC50) was put at 13 nM.
For `CCN(C(=O)c1cc(F)ccc1-n1c(C)c(C(=O)C2CCN(C(=O)[C@@H]3CCC4(CC4)N3)CC2)c2ccncc21)C(C)C` (single isomer, unassigned) [Example 49-2], 29 nM corresponded to half-maximal inhibition on Menin protein (IC50). Compared with the last compound, the IC50 is about 2.2-fold higher.
Still for that read-out and setting: then `CCN(C(=O)c1cc(F)ccc1-n1c(C)c(C(=O)C2CCN(C(=O)[C@@H]3CCC(C)(C)N3)CC2)c2ccncc21)C(C)C` (single isomer, unassigned) [Example 50-2], with 29 nM.
At Menin protein, `Cc1c(C(=O)C2CCN(C(=O)[C@H]3NC[C@@H]4C[C@@H]43)CC2)c2ccncc2n1-c1ccc(F)cc1C(=O)N(CC(F)(F)F)C(C)C` (single isomer, unassigned) [Example 51-2] had an IC50 of 22 nM. This IC50 and that of the compound before are within 1.5-fold of each other.
Still for that read-out and setting: the figure for `Cc1c(C(=O)[C@@H]2CCN(C(=O)[C@H]3NC[C@@H]4C[C@@H]43)[C@@H](C)C2)c2ccncc2n1-c1ccc(F)cc1C(=O)N(CC(F)(F)F)C(C)C` (single isomer, unassigned) [Example 53-3, 2-(3-((2R*,4S*)-1-((1S,2S,5R)-3-Azabicyclo[3.1.0]hexane-2-carbonyl)-2-methylpiperidine-4-carbonyl)-2-methyl-1H-pyrrolo[2,3-c]pyridin-1-yl)-5-fluoro-N-isopropyl-N-(2,2,2-trifluoroethyl)benzamide] is 14 nM.
As for `Cc1c(C(=O)C2CCN(C(=O)[C@H]3NC[C@@H]4C[C@@H]43)CC2)c2ccncc2n1-c1ccc(F)cc1C(=O)N(C(C)C)C(C)C` (single isomer, unassigned) [Example 55-2], half-maximal inhibition against Menin protein (IC50) was put at 9 nM.
Take `Cc1c(C(=O)C2CCN(C(=O)[C@@H]3CCC4(CC4)N3)CC2)c2ccncc2n1-c1ccc(F)cc1C(=O)N1[C@H](C)COC[C@H]1C` (single isomer, unassigned) [Example 58-2]: the half-inhibitory concentration (IC50) at hERG ion channel amounted to 111000 nM; against Menin protein, 30 nM.
`CC(C)c1ncccc1-c1cc(F)ccc1-n1cc(C(=O)C2CN(C(=O)[C@H]3N[C@@H]4CC[C@H]3C4)C2)c2ccncc21` [Example 10, (1-((1R,3S,4S)-2-Azabicyclo[2.2.1]heptane-3-carbonyl)azetidin-3-yl)(1-(4-fluoro-2-(2-isopropylpyridin-3-yl)phenyl)-1H-pyrrolo[2,3-c]pyridin-3-yl)methanone]: the IC50 at hERG ion channel was determined as 33800 nM.
`CC(C)N(C(=O)c1cc(F)ccc1-n1cc(C(=O)C2CCN(C(=O)[C@H]3NC4CCC3CC4)CC2)c2ccncc21)C(C)C` [Example 20, (S)-2-(3-(1-(2-Azabicyclo[2.2.2]octane-3-carbonyl)piperidine-4-carbonyl)-1H-pyrrolo[2,3-c]pyridin-1-yl)-5-fluoro-N,N-diisopropylbenzamide] yielded an IC50 on Menin protein of 22 nM. This counts as double-digit nanomolar.
On the same count and under the same terms, the figure for `CCN(C(=O)c1cc(F)ccc1-n1cc(C(=O)C2CCN(C(=O)[C@H]3NC[C@@H]4C[C@@H]43)CC2)c2ccncc21)C(C)C` [Example 28, 2-(3-(1-((1S,2S,5R)-3-Azabicyclo[3.1.0]hexane-2-carbonyl)piperidine-4-carbonyl)-1H-pyrrolo[2,3-c]pyridin-1-yl)-N-ethyl-5-fluoro-N-isopropylbenzamide] is 17 nM; for `C[C@@H]1COC[C@@H](C)N1C(=O)c1cc(F)ccc1-n1cc(C(=O)C2CCN(C(=O)[C@H]3N[C@@H]4CC[C@H]3C4)CC2)c2ccncc21` [Example 34, (1-((1R,3S,4S)-2-Azabicyclo[2.2.1]heptane-3-carbonyl)piperidin-4-yl)(1-(2-((3R,5R)-3,5-dimethylmorpholine-4-carbonyl)-4-fluorophenyl)-1H-pyrrolo[2,3-c]pyridin-3-yl)methanone] it is 29 nM.

The values above are taken from patent US20240335431A1, “1-H-PYRROLO[2,3-c]PYRIDINE COMPOUNDS” (Acerta Pharma B.V., priority 2023, published 2024).
